Tests used:
breast cancer = experiment: Docetaxel alone, several in-house proprietary studies; assay type: in vivo, human
Experimental: Docetaxel alone, in several in-house proprietary studies, gave overall response rates of 40 to 43% (in second line therapy at a dose of 100 mg/m^2), 48% (in first line therapy at a dose of 75 mg/m^2) and 61% (in first line therapy at a dose of 100 mg/m^2).

[1] = treatments based on taxoid derivatives, including docetaxel; cited from earlier work

## CC(=O)O[C@@]12CO[C@@H]1C[C@H](O)[C@@]1(C)C(=O)[C@H](O)C3=C(C)[C@@H](OC(=O)[C@H](O)[C@@H](NC(=O)OC(C)(C)C)c4ccccc4)C[C@@](O)([C@@H](OC(=O)c4ccccc4)[C@H]21)C3(C)C [docetaxel]
Breast cancer; first line therapy, 75 mg/m^2
  overall response rate: 48%
Breast cancer; first line therapy, 100 mg/m^2
  overall response rate: 61%
Breast cancer; second line therapy, 100 mg/m^2
  overall response rate: 40 to 43%
[1]
  toxicities: myelosuppression, neutropenia, hypersensitivity, peripheral neuropathy, and fluid retention

Reference: patent US6333348A, “Use of docetaxel for treating cancers” (Aventis Pharma S.A., priority 2000, dated 2001)
